Consider 25 molecules from ChEMBL document CHEMBL1127438, “Substituted (S)-phenylpiperidines and rigid congeners as preferential dopamine autoreceptor antagonists: synthesis and structure-activity relationships” (J Med Chem, 1994).

The test system of test [1] is Rattus norvegicus. Description: Evaluated for DOPAC level in nonpretreated habituated rats after subcuteneous dose of 100 micro mol/kg in rat striatum. The class given is functional.
The test system of test [2] is Rattus norvegicus. In words: Evaluated biochemically in nonpretreated habituated rats for (100 uM/kg) subcuteneous dose, Value expressed as locomotor activity (LMA). The format is functional.
Test [3] deals with T1, D(3) dopamine receptor (Homo sapiens, UniProt P35462). Description: Tested for in vitro binding affinity against cloned mammalian dopamine D3 receptor, expressed in CHO-K1 cells, using [3H]spiperone as radioligand. The format is cell-based.
Test [4] relates to Rattus norvegicus. In words: Effect of (60 min after administration of 200 (uM/kg) subcuteneous dose on DA release in brain dialysis model of rat striatum; Values expressed as percent of saline controls. The class given is functional.
The target of test [5] is T2, D(2) dopamine receptor (Homo sapiens, UniProt P14416). Description: biochemical.
Description: Affinity against recombinant dopamine receptor (DA) D2 expressed in CHO-K1 cells, using [3H]-spiperone as radioligand
For test [6], the target named is T2, D(2) dopamine receptor. In words: biochemical. This is another data set of the same source.
Description: In vitro binding affinity against cloned mammalian dopamine D2 autoreceptor, expressed in CHO-K1 cells, using [3H]U-86170 as radioligand
The target in test [7] is T3, D(2) dopamine receptor (Rattus norvegicus, UniProt P61169).
Description: Affinity against striatal dopamine D2 receptors using [3H]spiperone as radioligand in rats.
The test system of test [8] is Rattus norvegicus. Description: Evaluated for locomotor activity in nonpretreated habituated rats in 100 umol/kg of subcuteneous dose. The format is functional. On the set-up: unit not given here.
Test [9] concerns the target T1, D(3) dopamine receptor. In words: Tested for in vitro binding affinity against cloned mammalian dopamine autoreceptor (DA) receptors expressed in CHO-K1 cells [3H]-spiperone as radioligand. The class given is cell-based.
The test system of test [10] is Rattus norvegicus. In words: Evaluated for biochemical levels of DOPAC in nonpretreated habituated rats for subcuteneous dose of 100 micro mol/kg in rat striatum. The class given is functional.
The next test has as its target Dopamine receptor. Description: Tested for in vitro binding affinity against cloned mammalian dopamine autoreceptor (DA) receptors expressed in CHO-K1 cells using [3H]U-86170 as radioligand. The format is cell-based.
The test system of test [11] is Rattus norvegicus. In words: Evaluated biochemically in nonhabituated rats for (100 umol/kg) subcuteneous dose, Value expressed as locomotor activity (LMA). The class given is functional.
The test system of test [12] is Rattus norvegicus. In words: Evaluated for DOPA accumulation (DOPAacc) level in nonhabituated rats after subcuteneous dose (100 uM/kg) in rat striatum. The class given is functional.
Test [13] concerns Rattus norvegicus. In words: Evaluated biochemically in reserpine-pretreated habituated rats for (100 umol/kg) subcuteneous dose in rat striatum (DOPAacc), Value expressed as counts/30 min. The class given is functional.
Test [14] deals with T3, D(2) dopamine receptor. Description: Tested for affinity against striatal dopamine autoreceptor (DA) D2 receptors using [3H]spiperone as radioligand in rats.
For test [15], the system named is Rattus norvegicus. Description: Evaluated biochemically in reserpine-pretreated habituated rats for (100 umol/kg) subcuteneous dose, Value expressed as locomotor activity (LMA). The class given is functional.

T2 sequence (P14416 whole entry): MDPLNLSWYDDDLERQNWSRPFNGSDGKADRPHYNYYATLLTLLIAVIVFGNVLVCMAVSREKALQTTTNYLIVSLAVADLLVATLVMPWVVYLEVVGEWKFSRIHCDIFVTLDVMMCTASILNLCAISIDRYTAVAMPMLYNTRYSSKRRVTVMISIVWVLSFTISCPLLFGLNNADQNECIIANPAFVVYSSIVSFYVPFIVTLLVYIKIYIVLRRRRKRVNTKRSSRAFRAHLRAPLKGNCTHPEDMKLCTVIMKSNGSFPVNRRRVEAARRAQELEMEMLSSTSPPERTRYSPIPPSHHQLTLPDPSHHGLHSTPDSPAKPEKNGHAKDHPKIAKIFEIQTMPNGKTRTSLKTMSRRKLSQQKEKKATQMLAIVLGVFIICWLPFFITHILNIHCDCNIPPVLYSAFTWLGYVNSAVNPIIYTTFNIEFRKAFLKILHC
T1 sequence (P35462 whole entry): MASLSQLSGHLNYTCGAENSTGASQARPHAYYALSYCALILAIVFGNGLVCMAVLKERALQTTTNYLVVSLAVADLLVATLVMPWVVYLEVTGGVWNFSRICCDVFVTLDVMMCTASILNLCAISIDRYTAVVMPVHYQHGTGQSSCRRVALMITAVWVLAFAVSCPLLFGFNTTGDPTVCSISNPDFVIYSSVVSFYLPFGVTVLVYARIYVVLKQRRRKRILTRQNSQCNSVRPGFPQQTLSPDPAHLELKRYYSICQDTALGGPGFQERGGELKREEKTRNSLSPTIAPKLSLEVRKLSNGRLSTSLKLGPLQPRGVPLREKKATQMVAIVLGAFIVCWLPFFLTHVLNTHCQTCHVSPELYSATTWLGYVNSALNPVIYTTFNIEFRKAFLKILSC
T3 sequence (P61169 whole entry): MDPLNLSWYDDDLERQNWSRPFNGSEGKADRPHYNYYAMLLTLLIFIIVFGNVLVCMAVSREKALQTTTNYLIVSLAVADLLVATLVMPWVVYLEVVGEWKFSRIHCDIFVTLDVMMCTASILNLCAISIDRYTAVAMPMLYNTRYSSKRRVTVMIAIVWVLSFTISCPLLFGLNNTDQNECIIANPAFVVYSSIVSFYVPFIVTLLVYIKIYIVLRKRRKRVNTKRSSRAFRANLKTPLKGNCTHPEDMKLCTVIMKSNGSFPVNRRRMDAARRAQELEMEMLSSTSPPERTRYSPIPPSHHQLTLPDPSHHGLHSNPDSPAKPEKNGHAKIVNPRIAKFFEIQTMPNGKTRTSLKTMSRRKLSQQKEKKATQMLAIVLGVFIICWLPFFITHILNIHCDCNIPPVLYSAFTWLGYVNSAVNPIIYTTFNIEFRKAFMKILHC

Turning to `CCCN[C@@H]1CCc2c(OC)cccc2[C@@H]1C`, the Activity with Rattus norvegicus [1] turned out to be 346%. For the same molecule, the Control in the test on Rattus norvegicus [2] is 354%.

As to `C=CCN1CC[C@H]2c3cccc(OC)c3CC[C@H]21`, the Activity in the test on Rattus norvegicus [1] was 314%. Further, the Control in the test on Rattus norvegicus [2] came out at 182%.

Usually Ki stands for the dissociation constant of the complex between target and ligand, obtained from inhibition or displacement. On to `CCCN1CCC[C@@H](c2cccc(-c3ccsc3)c2)C1`, for which the results for the Activity in the test on Rattus norvegicus [1] and in the test with Rattus norvegicus [4] were 88% and 106%, respectively. For the same molecule, the Ki on D(3) dopamine receptor [3] is 0.078 µM; at D(2) dopamine receptor [5], more than 0.217 µM; on D(2) dopamine receptor [6], 0.134 µM; on D(2) dopamine receptor [7], 0.76 µM. Besides, the Control in the test with Rattus norvegicus [2] is 229%.

In the case of `CCCN1CCC[C@@H](c2ccc(OS(=O)(=O)C(F)(F)F)c(OS(=O)(=O)C(F)(F)F)c2)C1`, in the test with Rattus norvegicus [8], the LMA was 36. In addition, the inhibition constant (Ki) is 0.338 µM on D(3) dopamine receptor [9], 1.1 µM at Dopamine receptor and more than 0.217 µM on D(2) dopamine receptor [5]. Further, the Activity with Rattus norvegicus [10] came to 96%.

For `N#Cc1cccc([C@@H]2CCCN(CC3CC3)C2)c1`, the Ki at D(3) dopamine receptor [3] was 0.522 µM; at D(2) dopamine receptor [5] it was more than 0.217 µM; on D(2) dopamine receptor [6] it was 0.519 µM. Also, in the test with Rattus norvegicus [11], the “Locomotor activity (% of control)” value came to 191%.

As to `CCCN1CCC[C@@H](c2cccc(S(=O)(=O)N(C)C)c2)C1`, the Activity in the test with Rattus norvegicus [1] is listed as 355%; with Rattus norvegicus [4], 220%. For the same molecule, the Ki at D(3) dopamine receptor [3] stood at 0.17 µM; on D(2) dopamine receptor [7] it was 3.39 µM. The Control in the test with Rattus norvegicus [2] is 548%.

Turning to `CN1CCC[C@@H](c2cccc(C#N)c2)C1`, the Activity in the test on Rattus norvegicus [1] came out at 174%; in the test on Rattus norvegicus [12], 215%. Besides, the Ki on D(3) dopamine receptor [3] was 1.76 µM; at D(2) dopamine receptor [5], more than 0.217 µM; on D(2) dopamine receptor [6] it was 1.04 µM; at D(2) dopamine receptor [7] it was 8.33 µM. Besides, in the test with Rattus norvegicus [11], the “Locomotor activity (% of control)” value is reported as 79%.

Consider `CCN1CCC[C@@H](c2cccc(C#N)c2)C1`, for which the results for the Activity in the test with Rattus norvegicus [1], in the test with Rattus norvegicus [12] and with Rattus norvegicus [4] were 264%, 318% and 212%, respectively. Further, the Ki on D(3) dopamine receptor [3] is 0.514 µM; at D(2) dopamine receptor [5] it was more than 0.217 µM; on D(2) dopamine receptor [6], 0.235 µM; at D(2) dopamine receptor [7], 2.33 µM. Further, the Control in the test with Rattus norvegicus [2] was 351%. For the same molecule, the “Locomotor activity (% of control)” value in the test with Rattus norvegicus [11] is recorded as 113%.

For the molecule `C#CCN1CCC[C@@H](c2cccc(C#N)c2)C1`, the Activity in the test with Rattus norvegicus [1] is recorded as 146%. For the same molecule, the Ki at D(3) dopamine receptor [3] is more than 1.36 µM; at D(2) dopamine receptor [5], more than 0.217 µM; on D(2) dopamine receptor [6], 1.18 µM; at D(2) dopamine receptor [7], more than 15 µM. The Control in the test with Rattus norvegicus [2] is given as 297%.

On to `CCCN1CCC[C@@H](c2cccc(C(N)=O)c2)C1`, for which the results for the Activity with Rattus norvegicus [1] and with Rattus norvegicus [13] were 114% and 97%, respectively. Besides, the Ki on D(3) dopamine receptor [3] is more than 1.28 µM; on D(2) dopamine receptor [5] it was more than 0.217 µM; at D(2) dopamine receptor [6], more than 1.85 µM; on D(2) dopamine receptor [7], more than 15 µM. Further, in the test with Rattus norvegicus [2], the Control is recorded as 203%.

`CCCN1CCC2c3cccc(OS(=O)(=O)C(F)(F)F)c3CCC21` (stereo not given): in the test on Rattus norvegicus [8], the LMA came out at 687. The Ki was 0.061 µM at D(3) dopamine receptor [9], 0.089 µM at Dopamine receptor, 0.082 µM on D(2) dopamine receptor [14] and more than 0.217 µM at D(2) dopamine receptor [5]. Besides, in the test with Rattus norvegicus [10], the Activity was 223%.

On to `C=CCN1CCC2c3cccc(C#N)c3CCC21` (stereo not given), for which the Activity with Rattus norvegicus [1] is given as 172%. For the same molecule, the Ki is more than 0.455 µM on D(3) dopamine receptor [3], 0.984 µM on D(2) dopamine receptor [6] and more than 0.172 µM at D(2) dopamine receptor [7]. Also, in the test on Rattus norvegicus [2], the Control is given as 292%.

Regarding `CCCN1CCC[C@@H](c2cccc(C)c2)C1`, the Ki at D(3) dopamine receptor [9] is 0.573 µM; on Dopamine receptor, 0.43 µM; on D(2) dopamine receptor [14], 0.93 µM; on D(2) dopamine receptor [5] it was more than 0.217 µM.

As to `CCCN1CCC[C@@H](c2cccc(NS(=O)(=O)C(F)(F)F)c2)C1`, the Activity with Rattus norvegicus [1] was 91%. For the same molecule, the Ki at D(3) dopamine receptor [3] was more than 2 µM; on D(2) dopamine receptor [5], more than 0.217 µM. In addition, the Control in the test with Rattus norvegicus [2] was 305%.

Consider `CC(C)N1CCC[C@@H](c2cccc(C#N)c2)C1`, for which the Activity in the test on Rattus norvegicus [12] is on record as 301%. Also, the Ki on D(3) dopamine receptor [3] is 0.268 µM; at D(2) dopamine receptor [5], more than 0.217 µM; at D(2) dopamine receptor [6] it was 0.106 µM; at D(2) dopamine receptor [7] it was 0.717 µM. The Control in the test with Rattus norvegicus [2] is 366%. Moreover, the “Locomotor activity (% of control)” value with Rattus norvegicus [11] came out at 102%.

In the test on Rattus norvegicus [12], `N#Cc1cccc([C@@H]2CCCN(CCc3ccccc3)C2)c1` registered an Activity of 176%. Further, the Ki at D(3) dopamine receptor [3] is 0.059 µM; on D(2) dopamine receptor [5], more than 0.217 µM; at D(2) dopamine receptor [6], 0.022 µM; on D(2) dopamine receptor [7], 0.105 µM. Besides, the Control in the test with Rattus norvegicus [2] turned out to be 510%. Besides, in the test with Rattus norvegicus [11], the “Locomotor activity (% of control)” value is listed as 120%.

`N#Cc1cccc([C@@H]2CCCNC2)c1`: the values for the Activity with Rattus norvegicus [1] and with Rattus norvegicus [12] were 167% and 271%, respectively. In addition, the inhibition constant (Ki) at D(3) dopamine receptor [3] is 0.631 µM; at D(2) dopamine receptor [5], more than 0.217 µM; on D(2) dopamine receptor [6], 0.314 µM. Moreover, the Control with Rattus norvegicus [2] came to 575%. For the same molecule, the “Locomotor activity (% of control)” value in the test with Rattus norvegicus [11] turned out to be 193%.

As to `CCCN1CCC[C@@H](c2cccc(C(=O)OC)c2)C1`, the Activity in the test with Rattus norvegicus [1] amounted to 140%. Moreover, the Ki is more than 1.28 µM at D(3) dopamine receptor [3], more than 0.217 µM at D(2) dopamine receptor [5], more than 1.85 µM at D(2) dopamine receptor [6] and 2.17 µM on D(2) dopamine receptor [7]. Also, the Control in the test on Rattus norvegicus [2] was 297%.

Take `CCCN1CCC[C@@H](c2cccc(CC#N)c2)C1`: the Activity was found to be 302% in the test with Rattus norvegicus [1], 207% in the test on Rattus norvegicus [12] and 57% with Rattus norvegicus [13]. The Ki on D(3) dopamine receptor [3] was 0.509 µM; on D(2) dopamine receptor [5] it was more than 0.217 µM; on D(2) dopamine receptor [6], 0.069 µM; on D(2) dopamine receptor [7], 1.23 µM. Besides, the Control was 16% in the test with Rattus norvegicus [15] and 887% in the test with Rattus norvegicus [2]. Moreover, in the test on Rattus norvegicus [11], the “Locomotor activity (% of control)” value came out at 147%.

As to `CN1CCC[C@@H](c2cccc(OS(=O)(=O)C(F)(F)F)c2)C1`, the Ki at D(2) dopamine receptor [14] was 11.8 µM; on D(2) dopamine receptor [5], more than 0.217 µM.

Consider `N#Cc1cccc([C@@H]2CCCN(CCCc3ccccc3)C2)c1`, for which the Activity in the test on Rattus norvegicus [1] stood at 280%. For the same molecule, the Ki on D(3) dopamine receptor [3] came to 0.036 µM; on D(2) dopamine receptor [5] it was 0.06 µM; at D(2) dopamine receptor [6] it was 0.029 µM; on D(2) dopamine receptor [7] it was 0.08 µM. Besides, in the test with Rattus norvegicus [2], the Control amounted to 484%.

As for `CCCCN1CCC[C@@H](c2cccc(C#N)c2)C1`, the figures for the Activity with Rattus norvegicus [1] and in the test on Rattus norvegicus [13] were 257% and 71%, respectively. For the same molecule, the Ki on D(2) dopamine receptor [5] is more than 0.217 µM; on D(2) dopamine receptor [7], 0.617 µM. The Control is on record as 12% in the test on Rattus norvegicus [15] and 1382% in the test with Rattus norvegicus [2].

As to `C=CCN1CCC2c3cccc(C(N)=O)c3CCC21` (stereo not given), the Ki at D(3) dopamine receptor [3] was more than 1.5 µM; at D(2) dopamine receptor [5] it was more than 0.217 µM; on D(2) dopamine receptor [6] it was more than 1.5 µM; at D(2) dopamine receptor [7] it was more than 0.172 µM.

As for `CCCN1CCCC2c3cccc(OS(=O)(=O)C(F)(F)F)c3CCC21` (stereo in doubt; 45), the LMA in the test on Rattus norvegicus [8] amounted to 266. For the same molecule, the Ki on D(3) dopamine receptor [9] is 0.587 µM; at Dopamine receptor it was 0.744 µM; at D(2) dopamine receptor [14], more than 0.453 µM. In addition, the Activity in the test with Rattus norvegicus [10] was determined as 94%.

On to `CCCN1CCC[C@@H](c2cccc(O)c2)C1` [PRECLAMOL], for which the Activity in the test on Rattus norvegicus [1] is listed as 203%; with Rattus norvegicus [12], 141; with Rattus norvegicus [13], 25%; with Rattus norvegicus [4] it was 190. For the same molecule, the Control in the test on Rattus norvegicus [15] was found to be 12%; with Rattus norvegicus [2], 119%. The “Locomotor activity (% of control)” value with Rattus norvegicus [11] turned out to be 40%.
